Source: PMC12592139, “Quantitative assessment of the usability of electromechanical human-based modelling and simulation to replace Langendorff isolated rabbit heart experiments in the preclinical setting” (Frontiers in Pharmacology, 2025)
Read-outs that look alike come from different tables or passages of the source.

Columns and labels:
L-type calcium current = test system: L-type calcium current; set-up: method as in Trovato et al., 2025; conditions: at EC50; ref Trovato et al., 2025; cited from earlier work
isolated rabbit heart = experiment: Ex vivo rabbit whole-heart Langendorff experiments (QT, left ventricular pressure); conditions: 0.1µM
Protocol: Routine experimental measurements used in this study were retrieved from already existing datasets collected and curated by Sanofi, contributing to the 3R principles in animal experimentation: replacement, reduction and refinement. All the procedures described in the present study were performed in agreement with the European regulation (2010/63/EU) and under the approval and control of Sanofi’s ethics committee. […]
Hearts were spontaneously beating. […] The left ventricular pressure was evaluated using a pressure transducer within a saline-filled latex balloon inserted into the ventricular chamber. […] The electrocardiogram was recorded with two flexible electrodes gently pressed on the epicardium. The ECG parameters PQ, QRS, and QT durations were calculated using specific software (HEM-Notocord systems).
After stabilization, pressure was recorded with the vehicle for 15 min and used as a control period. […]
Baseline biomarker measurements were established in control conditions for both ex vivo experiments and in silico simulations, benchmarking compound results at each concentration against these respective controls. Percent variations of means for experiments and simulations were calculated. In the population, these variations were measured against each cell’s control, and the group mean is calculated.

hERG channel = hERG channel (Homo sapiens, UniProt Q12809); experiment: Automated patch-clamp (QPatch) on hERG channel
Protocol: (§1) The QPatch system (Sophion, Denmark) was used to investigate hERG, hNav1.5 and hKv4.3, and the SyncroPatch system (Nanion, Germany) was employed for hCav1.2. Recordings for all 37 compounds were performed at 21 °C.
(§2) When a Hill coefficient was not available, it was approximated as 1.

hNCX1 = biological target: T1, hNCX1 (Homo sapiens, UniProt P32418); experiment: Cell-based calcium mobilization assay on CHO cell lines expressing NCX1; conditions: for IC50: Fluo4-AM
T1 construct: expressed in transfected cells; host or cells: CHO cell lines
Protocol: Furthermore, in vitro potency for 11 compounds was assessed on the NCX isoforms using a cell-based calcium mobilization assay on CHO cell lines expressing NCX1, NCX2 or NCX3. Measurements of intracellular calcium concentration employed a fluorescent imaging plate reader (Molecular Devices, United States) with the calcium-sensitive dye Fluo4-AM. Detailed methods are described in [Pelat et al. (2021)].

late hNav1.5 = late hNav1.5 (Homo sapiens, UniProt Q14524); experiment: Late hNav1.5 inhibition in vitro; format: cell-based
QTc = conditions: clinical, administered in isolation; ref El Kadri et al., 2022; Morrisette et al., 2020; cited from earlier work
hCav1.2 = hCav1.2 (Homo sapiens, UniProt Q13936); experiment: Automated patch-clamp (SyncroPatch) on hCav1.2
Protocol: as §1, §2

hNav1.5 = hNav1.5 (Homo sapiens, UniProt Q14524); experiment: Automated patch-clamp (QPatch) on hNav1.5 (peak sodium current)
Protocol: as §1, §2

hKv4.3 = biological target: T2, hKv4.3 (Homo sapiens, UniProt Q9UK17); experiment: Automated patch-clamp (QPatch) on hKv4.3; format: cell-based
T2 construct: expressed in transfected cells
T2 sequence (Q9UK17 1-655): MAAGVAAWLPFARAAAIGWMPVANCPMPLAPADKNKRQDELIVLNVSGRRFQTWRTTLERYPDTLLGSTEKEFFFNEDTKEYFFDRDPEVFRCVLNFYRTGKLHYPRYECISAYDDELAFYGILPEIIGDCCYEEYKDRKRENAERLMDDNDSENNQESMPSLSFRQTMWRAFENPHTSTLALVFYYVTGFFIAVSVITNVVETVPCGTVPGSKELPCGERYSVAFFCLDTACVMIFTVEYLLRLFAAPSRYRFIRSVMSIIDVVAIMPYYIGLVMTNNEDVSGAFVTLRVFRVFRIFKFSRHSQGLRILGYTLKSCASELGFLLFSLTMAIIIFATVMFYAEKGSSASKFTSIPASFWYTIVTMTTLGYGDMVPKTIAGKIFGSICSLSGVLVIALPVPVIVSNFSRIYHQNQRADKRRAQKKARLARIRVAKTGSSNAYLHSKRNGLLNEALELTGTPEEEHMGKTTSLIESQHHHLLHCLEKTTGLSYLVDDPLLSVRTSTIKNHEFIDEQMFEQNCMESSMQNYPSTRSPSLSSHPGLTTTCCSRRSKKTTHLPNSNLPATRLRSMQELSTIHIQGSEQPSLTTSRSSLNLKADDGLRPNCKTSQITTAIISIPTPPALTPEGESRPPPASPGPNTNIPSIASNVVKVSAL
Text: Following the procedure in [Trovato et al. (2022)], we used automated patch-clamp platforms to study four ionic currents relevant to human repolarisation, as outlined by [Zhou et al. (2020)] as the minimum set of ion channels, marked by the CiPA Ion Channel Work Group, for reliable predictions of repolarisation abnormalities. […] The QPatch system (Sophion, Denmark) was used to investigate hERG, hNav1.5 and hKv4.3, and the SyncroPatch system (Nanion, Germany) was employed for hCav1.2. Recordings for all 37 compounds were performed at 21 °C.
as §2

[1] = CHO cells, calcium mobilization

Sequence of hCav1.2 (Q13936 whole entry): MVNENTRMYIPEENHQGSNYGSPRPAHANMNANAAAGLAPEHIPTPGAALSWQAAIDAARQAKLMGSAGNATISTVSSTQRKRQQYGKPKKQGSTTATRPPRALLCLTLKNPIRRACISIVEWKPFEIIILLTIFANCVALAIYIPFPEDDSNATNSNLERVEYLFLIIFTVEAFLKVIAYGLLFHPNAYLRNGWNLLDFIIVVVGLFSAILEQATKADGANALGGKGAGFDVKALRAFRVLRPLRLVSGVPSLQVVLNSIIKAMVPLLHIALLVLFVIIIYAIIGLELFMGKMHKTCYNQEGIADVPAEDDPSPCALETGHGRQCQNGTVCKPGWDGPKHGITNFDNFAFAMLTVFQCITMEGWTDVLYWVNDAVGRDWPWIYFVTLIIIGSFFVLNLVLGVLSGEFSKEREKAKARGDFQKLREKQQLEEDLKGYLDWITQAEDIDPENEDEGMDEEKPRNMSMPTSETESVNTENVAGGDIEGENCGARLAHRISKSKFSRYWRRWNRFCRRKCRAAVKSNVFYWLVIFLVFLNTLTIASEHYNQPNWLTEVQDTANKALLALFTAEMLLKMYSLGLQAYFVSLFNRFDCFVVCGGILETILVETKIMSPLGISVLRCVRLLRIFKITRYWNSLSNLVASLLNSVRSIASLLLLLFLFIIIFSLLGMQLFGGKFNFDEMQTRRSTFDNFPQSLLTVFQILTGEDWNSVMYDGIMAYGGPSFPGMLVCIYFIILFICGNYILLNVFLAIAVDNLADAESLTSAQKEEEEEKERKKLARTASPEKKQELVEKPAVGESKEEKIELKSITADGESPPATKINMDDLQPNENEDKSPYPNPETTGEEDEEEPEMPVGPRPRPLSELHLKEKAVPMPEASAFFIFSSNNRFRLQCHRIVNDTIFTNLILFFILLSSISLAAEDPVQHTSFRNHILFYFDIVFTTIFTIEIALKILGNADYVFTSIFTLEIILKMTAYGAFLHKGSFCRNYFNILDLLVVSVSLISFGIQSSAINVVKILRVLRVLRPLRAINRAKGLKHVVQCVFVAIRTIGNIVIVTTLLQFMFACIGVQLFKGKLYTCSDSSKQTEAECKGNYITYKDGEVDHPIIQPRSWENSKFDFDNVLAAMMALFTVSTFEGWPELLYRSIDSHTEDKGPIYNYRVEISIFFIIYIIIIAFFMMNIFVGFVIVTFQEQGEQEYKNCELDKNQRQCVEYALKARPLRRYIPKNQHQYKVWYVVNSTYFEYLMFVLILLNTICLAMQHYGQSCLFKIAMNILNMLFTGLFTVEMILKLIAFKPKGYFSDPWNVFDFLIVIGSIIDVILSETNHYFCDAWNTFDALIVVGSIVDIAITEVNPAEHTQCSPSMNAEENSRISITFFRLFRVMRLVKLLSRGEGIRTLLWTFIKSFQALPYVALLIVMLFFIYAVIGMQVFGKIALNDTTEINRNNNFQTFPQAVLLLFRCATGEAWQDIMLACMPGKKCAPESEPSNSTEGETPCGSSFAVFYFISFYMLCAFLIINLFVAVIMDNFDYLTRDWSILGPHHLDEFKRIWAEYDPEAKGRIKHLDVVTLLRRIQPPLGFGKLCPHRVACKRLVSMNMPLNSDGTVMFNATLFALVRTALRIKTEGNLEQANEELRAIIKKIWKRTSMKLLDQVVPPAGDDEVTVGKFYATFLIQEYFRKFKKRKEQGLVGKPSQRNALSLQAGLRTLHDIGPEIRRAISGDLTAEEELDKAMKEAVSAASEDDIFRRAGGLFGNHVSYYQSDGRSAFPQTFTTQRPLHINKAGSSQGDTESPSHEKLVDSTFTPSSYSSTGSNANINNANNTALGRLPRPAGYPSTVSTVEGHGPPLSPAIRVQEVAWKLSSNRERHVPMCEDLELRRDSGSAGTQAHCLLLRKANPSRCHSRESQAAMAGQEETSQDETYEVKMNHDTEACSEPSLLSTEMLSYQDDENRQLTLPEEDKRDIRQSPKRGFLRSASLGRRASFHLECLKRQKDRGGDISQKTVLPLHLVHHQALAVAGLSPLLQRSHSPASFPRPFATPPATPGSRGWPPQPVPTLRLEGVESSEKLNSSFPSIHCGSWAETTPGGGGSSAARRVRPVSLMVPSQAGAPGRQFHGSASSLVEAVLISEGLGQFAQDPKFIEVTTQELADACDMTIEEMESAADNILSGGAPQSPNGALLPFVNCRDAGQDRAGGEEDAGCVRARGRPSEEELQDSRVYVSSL
Sequence of hCav1.2 (Q08289 whole entry partner): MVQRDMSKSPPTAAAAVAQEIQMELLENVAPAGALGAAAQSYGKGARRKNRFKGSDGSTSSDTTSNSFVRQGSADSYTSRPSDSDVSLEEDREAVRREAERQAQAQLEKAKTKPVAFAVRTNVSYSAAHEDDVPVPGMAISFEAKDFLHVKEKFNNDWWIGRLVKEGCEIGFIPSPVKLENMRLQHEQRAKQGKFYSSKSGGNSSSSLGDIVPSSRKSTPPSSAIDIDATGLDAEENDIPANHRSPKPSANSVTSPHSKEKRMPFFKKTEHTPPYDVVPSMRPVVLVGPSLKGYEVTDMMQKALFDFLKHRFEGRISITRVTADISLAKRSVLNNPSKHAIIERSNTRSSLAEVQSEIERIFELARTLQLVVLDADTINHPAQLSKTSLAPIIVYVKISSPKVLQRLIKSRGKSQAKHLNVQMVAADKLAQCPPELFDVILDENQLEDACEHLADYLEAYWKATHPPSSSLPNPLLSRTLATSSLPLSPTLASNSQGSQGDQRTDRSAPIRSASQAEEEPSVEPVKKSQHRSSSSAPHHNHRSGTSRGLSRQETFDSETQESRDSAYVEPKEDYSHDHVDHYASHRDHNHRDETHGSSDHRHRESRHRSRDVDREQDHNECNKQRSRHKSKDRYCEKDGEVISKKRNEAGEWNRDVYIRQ
Sequence of hCav1.2 (P54289 25-956 partner limits assumed): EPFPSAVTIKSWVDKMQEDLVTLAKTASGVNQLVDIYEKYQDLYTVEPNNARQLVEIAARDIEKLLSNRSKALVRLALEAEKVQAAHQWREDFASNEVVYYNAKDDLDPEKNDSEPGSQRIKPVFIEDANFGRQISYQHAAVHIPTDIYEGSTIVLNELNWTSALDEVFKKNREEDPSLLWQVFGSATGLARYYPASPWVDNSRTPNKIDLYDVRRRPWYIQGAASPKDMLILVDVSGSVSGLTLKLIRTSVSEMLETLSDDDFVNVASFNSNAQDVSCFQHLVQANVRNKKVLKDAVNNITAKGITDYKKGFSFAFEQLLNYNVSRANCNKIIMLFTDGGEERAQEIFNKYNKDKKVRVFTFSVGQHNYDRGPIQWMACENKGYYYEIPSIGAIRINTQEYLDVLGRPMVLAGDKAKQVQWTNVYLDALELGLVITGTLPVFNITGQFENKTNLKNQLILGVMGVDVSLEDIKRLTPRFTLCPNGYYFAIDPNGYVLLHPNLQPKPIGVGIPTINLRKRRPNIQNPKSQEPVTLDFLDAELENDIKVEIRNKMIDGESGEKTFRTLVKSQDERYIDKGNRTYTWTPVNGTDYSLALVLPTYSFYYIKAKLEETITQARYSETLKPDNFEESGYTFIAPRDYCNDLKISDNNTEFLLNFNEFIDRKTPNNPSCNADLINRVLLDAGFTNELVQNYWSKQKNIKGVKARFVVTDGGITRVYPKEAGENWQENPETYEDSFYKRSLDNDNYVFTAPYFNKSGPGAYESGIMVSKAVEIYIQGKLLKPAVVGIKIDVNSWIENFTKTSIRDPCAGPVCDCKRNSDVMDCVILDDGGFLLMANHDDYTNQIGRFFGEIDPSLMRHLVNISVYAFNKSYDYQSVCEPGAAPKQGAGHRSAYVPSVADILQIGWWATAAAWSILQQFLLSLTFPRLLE
Sequence of hCav1.2 (P54289 957-1103 partner limits assumed): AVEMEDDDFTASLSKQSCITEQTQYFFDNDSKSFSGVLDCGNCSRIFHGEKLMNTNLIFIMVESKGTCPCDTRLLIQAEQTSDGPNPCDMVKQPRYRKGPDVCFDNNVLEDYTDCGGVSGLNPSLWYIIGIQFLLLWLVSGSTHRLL
Sequence of hERG channel (Q12809 whole entry): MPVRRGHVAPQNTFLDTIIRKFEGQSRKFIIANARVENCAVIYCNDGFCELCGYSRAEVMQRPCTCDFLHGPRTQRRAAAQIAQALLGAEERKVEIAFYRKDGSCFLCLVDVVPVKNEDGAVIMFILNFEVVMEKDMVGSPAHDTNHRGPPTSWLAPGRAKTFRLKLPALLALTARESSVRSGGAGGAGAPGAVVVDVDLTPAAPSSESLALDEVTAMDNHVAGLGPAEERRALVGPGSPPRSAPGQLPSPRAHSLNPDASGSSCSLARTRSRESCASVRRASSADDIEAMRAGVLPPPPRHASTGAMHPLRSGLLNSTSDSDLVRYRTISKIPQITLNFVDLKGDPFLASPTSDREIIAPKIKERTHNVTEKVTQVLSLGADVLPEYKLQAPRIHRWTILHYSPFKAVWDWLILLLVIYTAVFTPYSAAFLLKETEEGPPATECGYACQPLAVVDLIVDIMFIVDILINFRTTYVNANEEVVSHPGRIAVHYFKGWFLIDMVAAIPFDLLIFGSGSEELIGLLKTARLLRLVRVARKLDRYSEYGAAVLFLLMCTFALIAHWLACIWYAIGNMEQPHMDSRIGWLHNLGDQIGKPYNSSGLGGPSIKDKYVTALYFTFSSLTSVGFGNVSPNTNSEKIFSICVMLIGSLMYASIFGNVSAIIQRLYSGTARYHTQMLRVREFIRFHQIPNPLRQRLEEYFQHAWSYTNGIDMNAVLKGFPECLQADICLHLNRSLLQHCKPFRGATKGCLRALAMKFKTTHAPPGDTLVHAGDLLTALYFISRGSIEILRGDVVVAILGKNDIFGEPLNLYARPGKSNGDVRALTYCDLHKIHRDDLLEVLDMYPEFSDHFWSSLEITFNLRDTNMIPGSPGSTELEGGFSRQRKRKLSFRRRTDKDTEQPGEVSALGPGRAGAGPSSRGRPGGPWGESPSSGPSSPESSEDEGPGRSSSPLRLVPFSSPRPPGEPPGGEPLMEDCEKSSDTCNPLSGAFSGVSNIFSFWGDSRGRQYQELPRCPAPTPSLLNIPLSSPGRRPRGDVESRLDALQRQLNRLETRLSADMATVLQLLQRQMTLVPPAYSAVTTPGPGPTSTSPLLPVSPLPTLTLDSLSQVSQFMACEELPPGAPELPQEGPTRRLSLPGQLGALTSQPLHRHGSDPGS

SMILES	IC50 (hERG channel)	hNCX1 % block @ 30 µM (hNCX1)	IC50 (hCav1.2)	IC50 (hNav1.5)	other results
CC(CCc1ccc(O)cc1)NCCc1ccc(O)c(O)c1 (centres unmarked) [Dobutamine]	22.1 µM	15.00%			increase of L-type calcium current (factor) (L-type calcium current): 1.22; increase in ventricular pressure (isolated rabbit heart): 17%; NCX inhibition (hNCX1): does not inhibit
CCN(CCO)CCCC(C)Nc1ccnc2cc(Cl)ccc12 (centres unmarked) [SA1068, Hydroxychloroquine]	7 µM	14%	7.6 µM	90 µM	IC50 (hNCX1; [1]): > 30 µM; Late Nav1.5 % block @ 30 µM (late hNav1.5; 30 µM): 15%; IC50 (late hNav1.5; read-out: Late Nav1.5 IC50): > 30 µM; average increase in QTc (QTc): 11 ms
CN1CCN(C2=Nc3cc(Cl)ccc3Nc3ccccc32)CC1 [SA5332, Clozapine]				23.2 µM	IC50 (hKv4.3; automated patch-clamp, 21 °C, IC50 not achieved taken at maximum concentration or estimated with Hill coefficient 1, read-out: Kv4.3 IC50): 61.7 µM
CN(C)C(=O)C(CCN1CCC(O)(c2ccc(Cl)cc2)CC1)(c1ccccc1)c1ccccc1 [SA2089, Loperamide]			3.9 µM	2.1 µM	
[H]/N=C(\N/C(=N/[H])Nc1ccc(Cl)cc1)NC(C)C [SA1790, Paludrine]	> 30 µM				
C=C(C)[C@@H]1CCC(C)=C[C@H]1c1c(O)cc(CCCCC)cc1O [SA5067, Cannabidiol]	21.8 µM		11.8 µM	28.1 µM	hNCX1 nh (Hill coefficient) (hNCX1; [1]): nH 1.7; IC50 (hNCX1; [1]): 18.9 µM; IC50 (hKv4.3): 7.75 µM
C[C@@H]1OCC2(CCN(c3cnc(Sc4ccnc(N)c4Cl)c(N)n3)CC2)[C@@H]1N [SA6687, Batoprotafib]	8 µM				
CN=C(N)NC(=O)Nc1c(C)cccc1C [SA9977, Lidamidine]		17.00%			IC50 (hERG channel; human): > 30 µM
CCN(CC)CC(=O)Nc1c(C)cccc1C [SA5350, Lidocaine]		6.00%			
COC(=O)N1CCN(Cc2cccc(NC(=O)Nc3ccc(C)nc3)c2F)CC1 [SA3064, Omecamtiv]					IC50 (hERG channel; read-out: hERG IC50, automated patch-clamp, 21 °C, IC50 not achieved taken at maximum concentration or estimated with Hill coefficient 1): 126 µM
